Patent US6630472B1, “Compounds, pharmaceutical compositions, and methods for stimulating neuronal growth and elongation” (priority 1998, dated 2003)

System: not given
Assay: not given
Details: not given

Row | SMILES | melting point
1 | COc1cc(C(=O)C(=O)N2C3CCCC2C(=O)N(CCCCc2ccccc2)C3=O)cc(OC)c1OC | 101 to 103 °C

Target: FKBP12 (Homo sapiens, UniProt P62942)
Assay: rotamase inhibition assay (N-succinyl-Ala-Ala-Pro-Phe-p-nitroanilide, chymotrypsin-coupled)
Format: biochemical
Details: Rotamase Ki(app)
Procedure: In the rotamase inhibition assay, isomerization of an artificial substrate N-succinyl-Ala-Ala-Pro-Phe-p-nitroanilide is followed spectrophotometrically. The assay includes the cis form of the substrate, FKBP12, the compound being tested, and chymotrypsin. Chymotrypsin is able to cleave p-nitroaniline from the trans form of the substrate, but not from the cis form. Release of p-nitroaniline is measured spectrophotometrically. Using this assay, various amounts of the FKBP rotamase-inhibiting compounds of formula (I-a) or (I-b) were added to cis-N-succinyl-alanine-alanine-proline-phenylalanine-para-nitroaniline (Bachem, 3132 Kashiwa Street, Torrance, Calif. 90505) in the presence of FKBP12 and chymotrypsin. Spectrophotometric measurements of p-nitroaniline concentrations allowed estimation of the apparent Ki values, which are provided in Table 1 below.

Sequence of FKBP12 (P62942 whole entry, species assumed): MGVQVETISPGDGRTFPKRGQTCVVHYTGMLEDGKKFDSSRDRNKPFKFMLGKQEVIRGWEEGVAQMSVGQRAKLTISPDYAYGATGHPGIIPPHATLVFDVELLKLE

Row | SMILES | Ki
2 | COc1cc(OC)cc(N2C=C3C4CCCC(C(=O)N3CC2=O)N4C(=O)C(=O)c2cc(OC)c(OC)c(OC)c2)c1 (stereo not drawn) [Compound 142] | 54 nM

Same assay, conditions: apparent Ki; NI = no inhibition at the concentrations tested; read-out: Rotamase Ki(app)

Row | SMILES | Ki
3 | C=CCC(CC=C)C(=O)OC[C@@H]1CC[C@H](N2CC3CCCC(C2=O)N3C(=O)C(=O)c2cc(OC)c(OC)c(OC)c2)C1 (stereo partly drawn) [Compound 154] | 244 nM
4 | COc1ccc2c(c1)C1C3CCCC(C(=O)N1CC2)N3C(=O)C(=O)C1(COC(C)=O)CCCC1 (stereo not drawn) [Compound 82] | 3000 nM
5 | CCC(C)(C)C(=O)C(=O)N1C2CCCC1C(=O)N(C1CCCC1)C2 (stereo not drawn) [Compound 69] | 33000 nM
6 | CCC(CC)(COCOC)C(=O)C(=O)N1C2CCCC1C(=O)N(CCCCc1ccccc1)C2 (stereo not drawn) [Compound 83] | 860 nM
7 | CCC(C)(C)C(=O)C(=O)N1C2CCCC1C(=O)N(C[C@H](CO)OCc1ccccc1)C2 (stereo partly drawn) [Compound 58] | 3000 nM
8 | COCOC1(C(=O)C(=O)N2C3CCCC2C(=O)N(CCCCc2ccccc2)C3)CCCC1 (stereo not drawn) [Compound 112] | 1000 nM
9 | C=CCC(CC=C)C(=O)OC[C@@H](CN1CC2CCCC(C1=O)N2C(=O)C(=O)C(C)(C)CC)OCc1ccccc1 (stereo partly drawn) [Compound 75] | 790 nM
10 | COc1cc(C(=O)C(=O)N2C3C=CN(CCCCc4ccccc4)C(=O)C2CCC3)cc(OC)c1OC (stereo not drawn) [Compound 162, 1-[2-Oxo-3-(4-phenyl-butyl)-3,10-diaza-bicyclo[4.3.1]dec-4-en-10-yl]-2-(3,4,5-trimethoxy-phenyl)-ethane-1,2-dione] | 347 nM
11 | CCC(C)(C)C(=O)C(=O)N1C2CCCC1C(=O)N(C1CCCCC1)C2 (stereo not drawn) [Compound 57] | 74000 nM
12 | COC(OC)C(=O)OC1(C(=O)C(=O)N2C3CCCC2C(=O)N(CCCCc2ccccc2)C3)CCCC1 (stereo not drawn) [Compound 102] | 690 nM
13 | CCC(C)(C)C(=O)C(=O)N1C2CCCC1C1=CN(C3CCCC3)C(=O)CN1C2=O (stereo not drawn) [Compound 118] | 1000 nM
14 | COC(COC1(C(=O)C(=O)N2C3CCCC2C(=O)N(CCCCc2ccccc2)C3)CCCC1)OC (stereo not drawn) [Compound 103] | 1200 nM
15 | CC(=O)OCC(C)(C)C(=O)C(=O)N1C2CCCC1C(=O)N(CCCCc1ccccc1)C2 (stereo not drawn) [Compound 60] | 3000 nM
16 | COc1cc(C(=O)C(=O)N2C3CCCC2C(=O)N(CCCCCc2ccccc2)C3=O)cc(OC)c1OC [Compound 38] | 298 nM
17 | COc1cc(C(=O)C(=O)N2C3CCCC2C(=O)N(C2CCCCC2)C3)cc(OC)c1OC (stereo not drawn) [Compound 44] | 3000 nM
18 | C=CCC(CC=C)C(=O)OC[C@@H](CN1CC2CCCC(C1=O)N2C(=O)C(=O)c1cc(OC)c(OC)c(OC)c1)OCc1ccccc1 (stereo partly drawn) [Compound 76] | 112 nM
19 | COC[C@@H]1CC[C@@H](C)[C@](O)(C(=O)C(=O)N2C3CCCC2C2=CN(C4CCCC4)C(=O)CN2C3=O)C1 (stereo partly drawn) [Compound 140] | 10000 nM
20 | COc1cc(OC)cc(N2C=C3C4CCCC(C(=O)N3CC2=O)N4C(=O)C(=O)C2(COC(C)=O)CCCC2)c1 (stereo not drawn) [Compound 143] | 190 nM
21 | COC[C@@H]1CC[C@@H](C)[C@](O)(C(=O)C(=O)N2C3CCCC2C(=O)N(Cc2ccc4ccccc4c2)C3)C1 (stereo partly drawn) [Compound 138] | 1300 nM
22 | COc1cccc2c1CCN1C(=O)C3CCCC(C21)N3C(=O)C(=O)c1cc(OC)c(OC)c(OC)c1 (stereo not drawn) [Compound 12] | 27 nM
23 | COc1cc(C(=O)C(=O)N2C3CCCC2C(=O)N(CCOCc2ccccc2)C3)cc(OC)c1OC (stereo not drawn) [Compound 7] | 160 nM
24 | CCCC(CCC)C(=O)OC[C@H](CN1CC2CCCC(C1=O)N2C(=O)C(=O)c1cc(OC)c(OC)c(OC)c1)OCc1ccccc1 (stereo partly drawn) [Compound 47] | 200 nM
25 | C=CCC(CC=C)C(=O)OC[C@H](CN1CC2CCCC(C1=O)N2C(=O)C(=O)C1(COC(=O)COC)CCCC1)OCc1ccccc1 (stereo partly drawn) [Compound 110] | 86 nM
26 | CCC(C)(C)C(=O)C(=O)N1C2CCCC1C(=O)N([C@H]1CCC[C@@H]1OCc1ccccc1)C2 (stereo partly drawn) [Compound 77] | 20500 nM
27 | COC(CN1C[C@@H]2[C@H]3CCC[C@@H](C(=O)N2CC1=O)N3C(=O)C(=O)C1(OC)CCCC1)OC [Compound 115] | > 20000 nM
